2 compounds from patent publication US4542137A, “Alkylaminodesoxy-1.4;3.6-dianhydrohexitol nitrates substituted by purine bases and pharmaceutical compositions” (priority 1980, dated 1985) can be followed below.

Where two headings read alike, the source gives them in different places.

This experiment relates to isolated guinea pig hearts. The experiment can be described thus: coronary flowthrough-increasing effectiveness on isolated guinea pig hearts according to Langendorff. The note with it: Cavia porcellus, 25 μg/ml in tyrode solution, Langendorff heart; for activation at 25 µg/mL: read-out: flowthrough (coronary), percentage change in comparison with the initial value. On the procedure:
After achieving the stationary state in the 30th minute, the hearts were each infused with 50 ml. tyrode solution with a content of test substance of, in each case, 25 μg./ml. Each test substance was tested on 3-6 hearts.
In each case, there was measured the inotropism, the flowthrough and the frequency, whereby the values given in Table I are average values of the percentage changes in comparison with the starting values.

[1] abbreviates: read-out: frequency, percentage change in comparison with the initial value.
The mark [2] stands for this setting: read-out: inotropism, percentage change in comparison with the initial value.

As to `Cn1c(=O)c2c(ncn2CCCN[C@H]2CO[C@H]3[C@@H]2OC[C@@H]3O[N+](=O)[O-])n(C)c1=O` [Example 1d, 5-(3-Theophyllin-7-ylpropyl)-amino-5-desoxy-1.4;3.6-dianhydro-L-iditol 2-nitrate], the activation at 25 µg/mL worked out at 56.4%. In addition, the inhibition at 25 µg/mL under setting [1] came to 1.95%. Under setting [2], the inhibition at 25 µg/mL came out at 1.29%.
Regarding `CN(CCCn1cnc2c1c(=O)n(C)c(=O)n2C)[C@H]1CO[C@H]2[C@@H]1OC[C@@H]2O[N+](=O)[O-]` [Example 9c, 5-[N-Methyl-N-(3-theophyllin-7-ylpropyl)-amino]-5-desoxy-1.4;3.6-dianhydro-L-iditol 2-nitrate], the activation at 25 µg/mL turned out to be 40.5%. Under setting [1], the percent change from initial value at 25 µg/mL was found to be 0%. The inhibition at 25 µg/mL under setting [2] was 4.3%.
